# Data published in patent US9771372B2, “Compounds useful as S100-inhibitors” (Active Biotech AB, priority 2014, dated 2017).
# Biological target: T1, interaction between biotinylated human S100A9 and human RAGE-Fc (Homo sapiens, UniProt P06702)
# T1 construct: made in house; host or cells: E. coli BL21(DE3)/pET1120 (pLR757)
# T1 sequence (P06702 1-114): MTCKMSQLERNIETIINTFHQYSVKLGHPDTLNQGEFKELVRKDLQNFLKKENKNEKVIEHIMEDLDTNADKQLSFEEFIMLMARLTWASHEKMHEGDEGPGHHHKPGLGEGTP
# Experiment: AlphaScreen inhibition assay, Biot-hS100A9:hRAGE-Fc (S100A9-RAGE inhibition assay)
# Assay type: binding
# Details: biot-hS100A9 and rhRAGE-Fc, Ca2+ and Zn2+ in buffer
# Outline: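 Biotinylated human S100A9, in HBS-P with CaCl2 and ZnCl2, preincubated 1 h at room temperature in the dark with compound (final DMSO ≤1.25%), then combined with rhRAGE-Fc on protein A Acceptor beads plus streptavidin Donor beads (20 μg/mL each). Protein levels batch-dependent; percent inhibition from AlphaScreen signal vs DMSO-only control.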
row,SMILES,IC50 [µM]
1,"COCCNc1cccc(C(=O)NC2(C(F)(F)F)C(=O)Nc3nc4cc(C)c(C)cc4n32)n1 (single isomer, unassigned) [Example 220b, N-[10,11-dimethyl-4-oxo-3-(trifluoromethyl)-2,5,7-triazatricyclo[6.4.0.0^2,6]dodeca-1(12),6,8,10-tetraen-3-yl]-6-[(2-methoxyethyl)amino]pyridine-2-carboxamide]",4
2,"O=C(CCC1CCCCN1)NC1(C(F)(F)F)C(=O)Nc2nc3cc(Cl)c(Cl)cc3n21 (centres unmarked) [Example 69, N-[10,11-dichloro-4-oxo-3-(trifluoromethyl)-2,5,7-triazatricyclo[6.4.0.0^2,6]dodeca-1(12),6,8,10-tetraen-3-yl]-3-(piperidin-2-yl)propanamide]",4.9
3,"O=C(CCC1CCCC1)NC1(C(F)(F)F)C(=O)Nc2nc3cc(F)c(F)cc3n21 (centres unmarked) [Example 73, 3-cyclopentyl-N-[10,11-difluoro-4-oxo-3-(trifluoromethyl)-2,5,7-triazatricyclo-[6.4.0.0^2,6]dodeca-1(12),6,8,10-tetraen-3-yl]propanamide]",2.8
4,"O=C(NC1(C(F)(F)F)C(=O)Nc2nc3cc(Cl)c(Cl)cc3n21)[C@@H]1CCCN1 (mixture of isomers) [Example 41, (2S)—N-[10,11-dichloro-4-oxo-3-(trifluoromethyl)-2,5,7-triaza-tricyclo[6.4.0.0^2,6]dodeca-1(12),6,8,10-tetraen-3-yl]pyrrolidine-2-carboxamide]",2
5,"Cc1cc2nc3n(c2cc1C)C(NC(=O)CCC1CCCC1)(C(F)(F)F)C(=O)N3 (single isomer, unassigned) [Example 218a, 3-cyclopentyl-N-[10,11-dimethyl-4-oxo-3-(trifluoromethyl)-2,5,7-triazatricyclo[6.4.0.0^2,6]dodeca-1(12),6,8,10-tetraen-3-yl]propanamide]",3.13
6,"Cc1cc2nc3n(c2cc1C)C(NC(=O)c1cccc(NC2CCCCC2)n1)(C(F)(F)F)C(=O)N3 (centres unmarked) [Example 35, 6-(cyclohexylamino)-N-[10,11-dimethyl-4-oxo-3-(trifluoromethyl)-2,5,7-triazatricyclo-[6.4.0.0^2,6]dodeca-1(12),6,8,10-tetraen-3-yl]pyridine-2-carboxamide]",2.7
7,"Cc1cccc2c1nc1n2C(NC(=O)CCC2CCCC2)(C(F)(F)F)C(=O)N1 (centres unmarked) [Example 81, 3-cyclopentyl-N-[9-methyl-4-oxo-3-(trifluoromethyl)-2,5,7-triazatricyclo[6.4.0.0^2,6]dodeca-1(12),6,8,10-tetraen-3-yl]propanamide]",5.6
8,"O=C(NC1(C(F)(F)F)C(=O)Nc2nc3ccccc3n21)c1cc(Cl)cc(Cl)c1 (centres unmarked) [Example 12, 3,5-dichloro-N-[4-oxo-3-(trifluoromethyl)-2,5,7-triazatricyclo[6.4.0.0^2,6]dodeca-1(12),6,8,10-tetraen-3-yl]benzamide]",3
9,"CO[C@H](C(=O)NC1(C(F)(F)F)C(=O)Nc2nc3cc(C)c(C)cc3n21)c1ccccc1 (single isomer, unassigned) [Example 147b]",3.44

# These reach a lower IC50. Values come first.
row,IC50 [µM],SMILES
1,1.59,"COCCN(C)c1cccc(C(=O)NC2(C(F)(F)F)C(=O)Nc3nc4cc(Cl)c(Cl)cc4n32)n1 (centres unmarked) [Example 94, N-[10,11-dichloro-4-oxo-3-(trifluoromethyl)-2,5,7-triazatricyclo[6.4.0.0^2,6]dodeca-1(8),6,9,11-tetraen-3-yl]-6-[(2-methoxyethyl)(methyl)amino]pyridine-2-carboxamide]"
2,1.44,"Cc1cc2nc3n(c2cc1C)C(NC(=O)[C@H](C)OCC1CCCC1)(C(F)(F)F)C(=O)N3 (single isomer, unassigned) [Example 215a]"
3,1.3,"O=C(NC1(C(F)(F)F)C(=O)Nc2nc3cc(Cl)c(Cl)cc3n21)c1cccc(OCC(F)(F)F)n1 (centres unmarked) [Example 64, N-[10,11-dichloro-4-oxo-3-(trifluoromethyl)-2,5,7-triazatricyclo[6.4.0.0^2,6]dodeca-1(12),6,8,10-tetraen-3-yl]-6-(2,2,2-trifluoroethoxy)pyridine-2-carboxamide]"
4,0.7,"O=C(CCC1CCCCC1)NC1(C(F)(F)F)C(=O)Nc2nc3cc(Cl)c(Cl)cc3n21 (centres unmarked) [Example 53, 3-cyclohexyl-N-[10,11-dichloro-4-oxo-3-(trifluoromethyl)-2,5,7-triazatricyclo[6.4.0.0^2,6]-dodeca-1(12),6,8,10-tetraen-3-yl]propanamide]"
5,0.7,"Cc1ccc(-c2cccc3c2nc2n3C(NC(=O)CCC3CCCC3)(C(F)(F)F)C(=O)N2)cc1 (centres unmarked) [Example 202, 3-cyclopentyl-N-[9-(4-methylphenyl)-4-oxo-3-(trifluoromethyl)-2,5,7-triazatricyclo[6.4.0.0^2,6]dodeca-1(12),6,8,10-tetraen-3-yl]propanamide]"
6,0.6,"CN(C)CCNc1cccc(C(=O)NC2(C(F)(F)F)C(=O)Nc3nc4cc(Cl)c(Cl)cc4n32)n1 (centres unmarked) [Example 93, N-[10,11-dichloro-4-oxo-3-(trifluoromethyl)-2,5,7-triazatricyclo[6.4.0.0^2,6]dodeca-1(8),6,9,11-tetraen-3-yl]-6-{[2-(dimethylamino)ethyl]amino}pyridine-2-carboxamide]"
7,0.58,"COc1ccc(-c2cccc3c2nc2n3C(NC(=O)CCC3CCCC3)(C(F)(F)F)C(=O)N2)cc1 (centres unmarked) [Example 186, 3-cyclopentyl-N-[9-(4-methoxyphenyl)-4-oxo-3-(trifluoromethyl)-2,5,7-triazatricyclo[6.4.0.0^2,6]dodeca-1(12),6,8,10-tetraen-3-yl]propanamide]"
8,0.49,"O=C(CCC1CCCC1)NC1(C(F)(F)F)C(=O)Nc2nc3c(C(=O)O)cc(Cl)cc3n21 (centres unmarked) [Example 233, 11-chloro-3-(3-cyclopentylpropanamido)-4-oxo-3-(trifluoromethyl)-2,5,7-triazatricyclo[6.4.0.0^2,6]dodeca-1(12),6,8,10-tetraene-9-carboxylic acid]"
9,0.4,"CS(=O)(=O)NC(=O)c1cccc2c1nc1n2C(NC(=O)CCC2CCCC2)(C(F)(F)F)C(=O)N1 (centres unmarked) [Example 166, 3-(3-cyclopentylpropanamido)-N-methanesulfonyl-4-oxo-3-(trifluoromethyl)-2,5,7-triazatricyclo[6.4.0.0^2,6]dodeca-1(12),6,8,10-tetraene-9-carboxamide]"
10,0.26,"O=C(NC1(C(F)(F)F)C(=O)Nc2nc3cc(Cl)c(Cl)cc3n21)c1cccc(NCCO)n1 (centres unmarked) [Example 91, N-[10,11-dichloro-4-oxo-3-(trifluoromethyl)-2,5,7-triazatricyclo[6.4.0.0^2,6]dodeca-1(8),6,9,11-tetraen-3-yl]-6-[(2-hydroxyethyl)amino]pyridine-2-carboxamide]"
11,0.19,"O=C(NC1(C(F)(F)F)C(=O)Nc2nc3cc(Cl)c(Cl)cc3n21)c1cccc(CO)n1 (centres unmarked) [Example 97, N-[10,11-dichloro-4-oxo-3-(trifluoromethyl)-2,5,7-triazatricyclo[6.4.0.0^2,6]dodeca-1(8),6,9,11-tetraen-3-yl]-6-(hydroxymethyl)pyridine-2-carboxamide]"
